Results: patent EP0297456A2, “Immunosuppressant peptides” (MERRELL DOW PHARMACEUTICALS INC., priority 1987, dated 1989)

How the values were obtained:
[1] = system: Mixed Lymphocyte Cultures (C57BL/6 and DBA/2 leukocytes); test: Inhibition of ³H-thymidine incorporation in mixed lymphocyte cultures; assay type: cell-based; conditions: 120 hour incubation
Experimental: Inhibition of ³H-Thymidine Incorporation in Mixed Lymphocyte Cultures by Various Peptides
Spleens were aseptically removed and teased apart in RPMI 1640 culture media to obtain single cell suspensions. Erythrocytes were lysed by suspending cells in ACK buffer (0.155 M NH₄Cl, 0.1 mM EDTA, 0.01 M KHCO₃) and the remaining leukocytes washed. C57BL/6 (5 x 10⁵cells) and DBA/2 (5 x 10⁵cells) leukocytes were co-cultured in 0.1 ml RPMI-1640, supplemented with 2% fetal calf serum (FCS), in 96-well microtiter plates. Various concentrations of peptides were added at the initiation of cell culture. Following a 120 hour incubation (37°C), including a pulse with 1 µCi of [³H]TdR in the final 18 hours of culture, the cells were harvested with an automated cell harvester unit onto filter paper strips and placed in ACS scintillation fluid (Amersham, Oakville, Ontario). The amount of [³H]TdR incorporation was then measured in a Beckman LS 7800 liquid scintillation counter.

[2] = system: Anti-T₃ Stimulated Lymphocytes (Human peripheral blood mononuclear leukocytes MNL); test: Inhibition of ³H-thymidine incorporation in anti-T₃ stimulated lymphocytes; assay type: cell-based; conditions: 72 hour incubation
Experimental: Inhibition of ³H-Thymidine Incorporation in Anti-T₃ Stimulated Lymphocytes by Various Peptides
Human peripheral blood mononuclear leukocytes MNL were isolated by Ficoll-Hypaque density sedimentation. MNL ([…]) were cultured with anti-T₃ (1:10,000 dilution; Ortho Diagnostics) in 0.1 ml DMEM, supplemented with 2% FCS, in 96-well microtiter plates. Following a 72 hour incubation (37°C), including a pulse with 1 µCi of [³H]TdR in the final 18 hours of culture, the cells were harvested and counted as described in Example 6.

What does the source list for “H-Glu-Val-Val-Leu-Gln-Asn-Arg-Arg-Gly-Leu-Leu-OH (H-EVVLQNRRGLL-OH) [Example 4, peptide]”?
% Inhibition ([1]; 4 µM BSA-conjugated peptide): 28%; ³H-Thymidine Incorporation (cpm) ([1]; 4 µM BSA-conjugated peptide): 5751 ± 407 cpm; % Inhibition ([1]; 8 µM BSA-conjugated peptide): 54%; ³H-Thymidine Incorporation (cpm) ([1]; 8 µM BSA-conjugated peptide): 3063 ± 372 cpm; % Inhibition ([2]; 4 µM BSA-conjugated peptide): 5%; ³H-Thymidine Incorporation (cpm) ([2]; 4 µM BSA-conjugated peptide): 54331 ± 4717 cpm; % Inhibition ([2]; 8 µM BSA-conjugated peptide): 11%; ³H-Thymidine Incorporation (cpm) ([2]; 8 µM BSA-conjugated peptide): 39248 ± 5251 cpm

Which results are given for “H-LQNRRGLDLLFLKEGGL-NH2 [Example 3, peptide]”?
% Inhibition ([1]; 12 µM BSA-conjugated peptide): 57%; ³H-Thymidine Incorporation (cpm) ([1]; 12 µM BSA-conjugated peptide): 3417 ± 263 cpm; % Inhibition ([1]; 24 µM BSA-conjugated peptide): 80%; ³H-Thymidine Incorporation (cpm) ([1]; 24 µM BSA-conjugated peptide): 1328 ± 421 cpm; % Inhibition ([2]; 12 µM BSA-conjugated peptide): 45%; ³H-Thymidine Incorporation (cpm) ([2]; 12 µM BSA-conjugated peptide): 31667.±.4729 cpm; % Inhibition ([2]; 24 µM BSA-conjugated peptide): 68%; ³H-Thymidine Incorporation (cpm) ([2]; 24 µM BSA-conjugated peptide): 14027 ± 867 cpm

With “H-LRKLRKRLLRDADDL-NH2 [Example 1, peptide]” as the substance, how does the “% Inhibition” value ([1]; 9 µM BSA-conjugated peptide) read?
The value was 59%.

And the “³H-Thymidine Incorporation (cpm)” value ([1]; 9 µM BSA-conjugated peptide)?
The value was 3267 ± 457 cpm.

And the “% Inhibition” value ([1]; 18 µM BSA-conjugated peptide)?
Its value is 73%.

And the “³H-Thymidine Incorporation (cpm)” value ([1]; 18 µM BSA-conjugated peptide)?
The value was 1800 ± 412 cpm.

And the “% Inhibition” value ([2]; 9 µM BSA-conjugated peptide)?
Its value is 33%.

And the “³H-Thymidine Incorporation (cpm)” value ([2]; 9 µM BSA-conjugated peptide)?
Its value is 38521 ± 5349 cpm.

And the “% Inhibition” value ([2]; 18 µM BSA-conjugated peptide)?
Its value is 50%.

And the “³H-Thymidine Incorporation (cpm)” value ([2]; 18 µM BSA-conjugated peptide)?
Its value is 21984 ± 3824 cpm.

With “H-TRLTRKRGLKLATAL-NH2 [Example 2, peptide]” as the substance, how does the “% Inhibition” value ([1]; 14 µM BSA-conjugated peptide) read?
Its value is 45%.

What about the “³H-Thymidine Incorporation (cpm)” value ([1]; 14 µM BSA-conjugated peptide) of the same substance?
The value was 4406 ± 848 cpm.

And the “% Inhibition” value ([1]; 28 µM BSA-conjugated peptide)?
The value was 67%.

And the “³H-Thymidine Incorporation (cpm)” value ([1]; 28 µM BSA-conjugated peptide)?
Its value is 2209 ± 1471 cpm.

What about the “% Inhibition” value ([2]; 14 µM BSA-conjugated peptide) of the same substance?
Its value is 23%.

And the “³H-Thymidine Incorporation (cpm)” value ([2]; 14 µM BSA-conjugated peptide)?
The value was 44151 ± 2151 cpm.

What about the “% Inhibition” value ([2]; 28 µM BSA-conjugated peptide) of the same substance?
Its value is 54%.

What about the “³H-Thymidine Incorporation (cpm)” value ([2]; 28 µM BSA-conjugated peptide) of the same substance?
Its value is 20041 ± 3331 cpm.
